Reference: patent US9206200B2, “N-linked lactam M1 receptor positive allosteric mogulators” (Merck Sharp & Dohme Corp., priority 2011, dated 2015)

Target: T1, acetylcholine muscarinic M1 receptor (Homo sapiens, UniProt P11229)
T1 construct: expressed in transfected cells; host or cells: CHOnfat cells (CHO cells with an NFAT reporter) expressing hM1, kept under Geneticin selection
T1 sequence (P11229 1-460): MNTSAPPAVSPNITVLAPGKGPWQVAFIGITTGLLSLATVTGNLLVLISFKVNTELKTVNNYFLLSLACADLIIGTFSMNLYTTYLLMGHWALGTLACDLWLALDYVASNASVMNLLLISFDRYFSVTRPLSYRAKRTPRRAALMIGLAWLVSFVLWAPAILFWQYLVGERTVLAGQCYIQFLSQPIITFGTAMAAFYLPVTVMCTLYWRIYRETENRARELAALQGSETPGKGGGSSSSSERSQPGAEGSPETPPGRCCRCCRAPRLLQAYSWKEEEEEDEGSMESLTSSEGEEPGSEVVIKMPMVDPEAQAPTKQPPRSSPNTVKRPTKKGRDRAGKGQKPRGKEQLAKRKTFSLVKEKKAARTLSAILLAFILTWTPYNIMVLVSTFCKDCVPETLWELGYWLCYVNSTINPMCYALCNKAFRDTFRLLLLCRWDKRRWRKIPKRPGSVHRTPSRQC
Assay: muscarinic FLIPR assay: intracellular calcium in CHOnfat/hM1 cells, potentiation of EC20 acetylcholine
Type: cell-based
Settings: Table 2; CHOnfat/hM1 cells, FLIPR, EC20 acetylcholine (3 nM final); read-out: M1 Pot.
Summary of the method: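 CHOnfat cells stably expressing human M1, Fluo-4AM-loaded, in HBSS with 20 mM HEPES, 2.5 mM probenecid, 1% BSA. Compounds preincubated 4 min (printed "4 mM") before an EC20 acetylcholine challenge (3 nM final). FLIPR intracellular Ca²⁺ signal compared with 3 nM acetylcholine alone to detect potentiation.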

SMILES | EC50
CC1c2c(cc(CN3CCN(c4cnn(C)c4)CC3)c3cccnc23)C(=O)N1C1CCCCC1O (stereo not drawn) [Example 158, 8-(2-hydroxycyclohexyl)-9-methyl-5-{[4-(1-methyl-1H-pyrazol-4-yl)piperazin-1-yl]methyl}-8,9-dihydro-7H-pyrrolo[3,4-h]quinolin-7-one] | 70 nM
O=C1c2cc(CN3CCN(c4ccncc4)CC3)c3cccnc3c2CN1C1CCCCC1O (stereo not drawn) [Example 160, 8-(2-hydroxycyclohexyl)-5-[(4-pyridin-4-ylpiperazin-1-yl)methyl]-8,9-dihydro-7H-pyrrolo[3,4-h]quinolin-7-one] | 110 nM
CC1c2c(cc(CN3CCC(c4ccncc4)CC3)c3cccnc23)C(=O)N1C1CCCCC1O (stereo not drawn) [Example 161, 8-(2-hydroxycyclohexyl)-9-methyl-5-[(4-pyridin-4-ylpiperidin-1-yl)methyl]-8,9-dihydro-7H-pyrrolo[3,4-h]quinolin-7-one] | 650 nM
O=C1c2cc(CN3CCN(c4cccnc4)CC3)c3cccnc3c2CN1C1CCCCC1O (stereo not drawn) [Example 162, 8-(2-hydroxycyclohexyl)-5-[(4-pyridin-3-ylpiperazin-1-yl)methyl]-8,9-dihydro-7H-pyrrolo[3,4-h]quinolin-7-one] | 28 nM
CC1c2c(cc(CN3CCN(c4cccnc4)CC3)c3cccnc23)C(=O)N1C1CCCCC1O (stereo not drawn) [Example 163, 8-(2-hydroxycyclohexyl)-9-methyl-5-[(4-pyridin-3-ylpiperazin-1-yl)methyl]-8,9-dihydro-7H-pyrrolo[3,4-h]quinolin-7-one] | 520 nM
CC1c2c(cc(CN3CCN(c4cccnc4)CC3)c3cccnc23)C(=O)N1C1CCCCC1O (stereo not drawn) [Example 164, 8-(2-hydroxycyclohexyl)-9-methyl-5-[(4-pyridin-3-ylpiperazin-1-yl)methyl]-8,9-dihydro-7H-pyrrolo[3,4-h]quinolin-7-one] | 36 nM
O=C1c2cc(CN3CCN(c4ccccn4)CC3)c3cccnc3c2CN1C1CCCCC1O (stereo not drawn) [Example 165, 8-(2-hydroxycyclohexyl)-5-[(4-pyridin-2-ylpiperazin-1-yl)methyl]-8,9-dihydro-7H-pyrrolo[3,4-h]quinolin-7-one] | 15 nM
CC1c2c(cc(CN3CCN(c4ccccn4)CC3)c3cccnc23)C(=O)N1C1CCCCC1O (stereo not drawn) [Example 166, 8-(2-hydroxycyclohexyl)-9-methyl-5-[(4-pyridin-2-ylpiperazin-1-yl)methyl]-8,9-dihydro-7H-pyrrolo[3,4-h]quinolin-7-one] | 580 nM
CC1c2c(cc(CN3CCN(c4ccccn4)CC3)c3cccnc23)C(=O)N1C1CCCCC1O (stereo not drawn) [Example 167, 8-(2-hydroxycyclohexyl)-9-methyl-5-[(4-pyridin-2-ylpiperazin-1-yl)methyl]-8,9-dihydro 7H-pyrrolo[3,4-h]quinolin-7-one] | 59 nM
COc1ccc(N2CCN(Cc3cc4c(c5ncccc35)CN(C3CCCCC3O)C4=O)CC2)cc1 (stereo not drawn) [Example 168, 8-(2-hydroxycyclohexyl)-5-{[4-(4-methoxyphenyl)piperazin-1-yl]methyl}-8,9-dihydro-7H-pyrrolo[3,4-h]quinolin-7-one] | 24 nM
COc1ccc(N2CCN(Cc3cc4c(c5ncccc35)C(C)N(C3CCCCC3O)C4=O)CC2)cc1 (stereo not drawn) [Example 169, 8-(2-hydroxycyclohexyl)-5-{[4-(4-methoxyphenyl)piperazin-1-yl]methyl}-9-methyl-8,9-dihydro-7H-pyrrolo[3,4-h]quinolin-7-one] | 590 nM
COc1ccc(N2CCN(Cc3cc4c(c5ncccc35)C(C)N(C3CCCCC3O)C4=O)CC2)cc1 (stereo not drawn) [Example 170, 8-(2-hydroxycyclohexyl)-5-{[4-(4-methoxyphenyl)piperazin-1-yl]methyl}-9-methyl-8,9-dihydro-7H-pyrrolo[3,4-h]quinolin-7-one] | 100 nM
O=C1c2cc(CN3CCN(c4ccc(F)cc4)CC3)c3cccnc3c2CN1C1CCCCC1O (stereo not drawn) [Example 171, 5-{[4-(4-fluorophenyl)piperazin-1-yl]methyl}-8-(2-hydroxycyclohexyl)-8,9-dihydro-7H-pyrrolo[3,4-h]quinolin-7-one] | 23 nM
CC1c2c(cc(CN3CCN(c4ccc(F)cc4)CC3)c3cccnc23)C(=O)N1C1CCCCC1O (stereo not drawn) [Example 172, 5-{[4-(4-fluorophenyl)piperazin-1-yl]methyl}-8-(2-hydroxycyclohexyl)-9-methyl-8,9-dihydro-7H-pyrrolo[3,4-h]quinolin-7-one] | 480 nM
CC1c2c(cc(CN3CCN(c4ccc(F)cc4)CC3)c3cccnc23)C(=O)N1C1CCCCC1O (stereo not drawn) [Example 173, 5-{[4-(4-fluorophenyl)piperazin-1-yl]methyl}-8-(2-hydroxycyclohexyl)-9-methyl-8,9-dihydro-7H-pyrrolo[3,4-h]quinolin-7-one] | 100 nM
O=C1c2cc(CN3CCN(c4ccccc4)CC3)c3cccnc3c2CN1C1CCCCC1O (stereo not drawn) [Example 174, 8-(2-hydroxycyclohexyl)-5-[(4-phenylpiperazin-1-yl)methyl]-8,9-dihydro-7H-pyrrolo[3,4-h]quinolin-7-one] | 18 nM
CC1c2c(cc(CN3CCN(c4ccccc4)CC3)c3cccnc23)C(=O)N1C1CCCCC1O (stereo not drawn) [Example 175, 8-(2-hydroxycyclohexyl)-9-methyl-5-[(4-phenylpiperazin-1-yl)methyl]-8,9-dihydro-7H-pyrrolo[3,4-h]quinolin-7-one] | 490 nM
CC1c2c(cc(CN3CCN(c4ccccc4)CC3)c3cccnc23)C(=O)N1C1CCCCC1O (stereo not drawn) [Example 176, 8-(2-hydroxycyclohexyl)-9-methyl-5-[(4-phenylpiperazin-1-yl)methyl]-8,9-dihydro-7H-pyrrolo[3,4-h]quinolin-7-one] | 93 nM
